{"source": "PubChem BioAssay (NCI)", "assay_in_all_cases": "NCI anticancer screen, dose series, 48 h", "key": {"DU-145 prostate": {"system": "DU-145 prostate"}, "A549 NSCLC": {"system": "A549 NSCLC"}, "MDA-N": {"system": "MDA-N"}, "CCRF-CEM leukemia": {"system": "CCRF-CEM leukemia"}, "NCI-H522 lung": {"system": "NCI-H522 lung"}, "EKVX NSCLC": {"system": "EKVX NSCLC"}, "786-0 renal": {"system": "786-0 renal"}, "OVCAR-8 ovarian": {"system": "OVCAR-8 ovarian"}, "HCC-2998 colon": {"system": "HCC-2998 colon"}, "HL-60(TB) leukemia": {"system": "HL-60(TB) leukemia"}, "MALME-3M melanoma": {"system": "MALME-3M melanoma"}, "ACHN renal": {"system": "ACHN renal"}, "HOP-92 NSCLC": {"system": "HOP-92 NSCLC"}, "HCT-116 colon": {"system": "HCT-116 colon"}, "CAKI-1 renal": {"system": "CAKI-1 renal"}, "BT-549 breast": {"system": "BT-549 breast"}, "HOP-62 NSCLC": {"system": "HOP-62 NSCLC"}, "NCI-H226 lung": {"system": "NCI-H226 lung"}, "SF-268 CNS": {"system": "SF-268 CNS"}, "SK-MEL-28 melanoma": {"system": "SK-MEL-28 melanoma"}, "COLO 205 colon": {"system": "COLO 205 colon"}, "A498 renal": {"system": "A498 renal"}, "MDA-MB-435": {"system": "MDA-MB-435"}, "RPMI-8226 leukemia": {"system": "RPMI-8226 leukemia"}, "K-562 leukemia": {"system": "K-562 leukemia"}, "MOLT-4 leukemia": {"system": "MOLT-4 leukemia"}, "UO-31 renal": {"system": "UO-31 renal"}, "HCT-15 colon": {"system": "HCT-15 colon"}, "MCF7 breast": {"system": "MCF7 breast"}, "SR leukemia": {"system": "SR leukemia"}, "KM12 colon": {"system": "KM12 colon"}, "MDA-MB-231 breast": {"system": "MDA-MB-231 breast"}, "NCI-H460 lung": {"system": "NCI-H460 lung"}, "SK-MEL-2 melanoma": {"system": "SK-MEL-2 melanoma"}, "OVCAR-3 ovarian": {"system": "OVCAR-3 ovarian"}, "SK-MEL-5 melanoma": {"system": "SK-MEL-5 melanoma"}, "NCI/ADR-RES ovarian": {"system": "NCI/ADR-RES ovarian"}, "NCI-H23 lung": {"system": "NCI-H23 lung"}, "HT29 colon": {"system": "HT29 colon"}, "OVCAR-4 ovarian": {"system": "OVCAR-4 ovarian"}, "RXF 393 renal": {"system": "RXF 393 renal"}, "SN12C renal": {"system": "SN12C renal"}, "PC-3 prostate": {"system": "PC-3 prostate"}, "U251 CNS": {"system": "U251 CNS"}, "SF-295 CNS": {"system": "SF-295 CNS"}, "SF-539 CNS": {"system": "SF-539 CNS"}, "HS 578T breast": {"system": "HS 578T breast"}, "TK-10 renal": {"system": "TK-10 renal"}, "LOX IMVI melanoma": {"system": "LOX IMVI melanoma"}, "IGROV1 ovarian": {"system": "IGROV1 ovarian"}, "SNB-75 CNS": {"system": "SNB-75 CNS"}}, "note": "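Where inhibition never reached the appropriate level, the endpoint shown equals the highest concentration tested. Otherwise, values were interpolated linearly from a five-concentration, 48-hour dose response in 96-well plates. The concentration for full growth arrest is given as TGI.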", "data": [{"smiles": "CS(=O)(=O)N1CC(CI)c2ccc(O)cc21", "note": "(stereo unspecified)", "values": [{"measurement": "TGI", "setting": "DU-145 prostate", "value": 9.36, "unit": "µM"}, {"measurement": "TGI", "setting": "A549 NSCLC", "value": 17, "unit": "µM"}, {"measurement": "TGI", "setting": "MDA-N", "value": 6.4, "unit": "µM"}, {"measurement": "TGI", "setting": "CCRF-CEM leukemia", "value": 17.4, "unit": "µM"}, {"measurement": "TGI", "setting": "NCI-H522 lung", "value": 2.99, "unit": "µM"}, {"measurement": "TGI", "setting": "EKVX NSCLC", "value": 14.4, "unit": "µM"}, {"measurement": "TGI", "setting": "786-0 renal", "value": 12.7, "unit": "µM"}, {"measurement": "TGI", "setting": "OVCAR-8 ovarian", "value": 11.7, "unit": "µM"}, {"measurement": "TGI", "setting": "HCC-2998 colon", "value": 4.69, "unit": "µM"}, {"measurement": "TGI", "setting": "HL-60(TB) leukemia", "value": 6.09, "unit": "µM"}, {"measurement": "TGI", "setting": "MALME-3M melanoma", "value": 4.43, "unit": "µM"}, {"measurement": "TGI", "setting": "ACHN renal", "value": 12.9, "unit": "µM"}, {"measurement": "TGI", "setting": "HOP-92 NSCLC", "value": 6.31, "unit": "µM"}, {"measurement": "TGI", "setting": "HCT-116 colon", "value": 12.6, "unit": "µM"}, {"measurement": "TGI", "setting": "CAKI-1 renal", "value": 12.9, "unit": "µM"}, {"measurement": "TGI", "setting": "BT-549 breast", "value": 15.6, "unit": "µM"}, {"measurement": "TGI", "setting": "HOP-62 NSCLC", "value": 7.62, "unit": "µM"}, {"measurement": "TGI", "setting": "NCI-H226 lung", "value": 10.7, "unit": "µM"}, {"measurement": "TGI", "setting": "SF-268 CNS", "value": 16.1, "unit": "µM"}, {"measurement": "TGI", "setting": "SK-MEL-28 melanoma", "value": 14.3, "unit": "µM"}, {"measurement": "TGI", "setting": "COLO 205 colon", "value": 12.3, "unit": "µM"}, {"measurement": "TGI", "setting": "A498 renal", "value": 7.46, "unit": "µM"}, {"measurement": "TGI", "setting": "MDA-MB-435", "value": 4.2, "unit": "µM"}, {"measurement": "TGI", "setting": "RPMI-8226 leukemia", "value": 19.1, "unit": "µM"}, {"measurement": "TGI", "setting": "K-562 leukemia", "value": 24.2, "unit": "µM"}, {"measurement": "TGI", "setting": "MOLT-4 leukemia", "value": 9.65, "unit": "µM"}, {"measurement": "TGI", "setting": "UO-31 renal", "value": 11.6, "unit": "µM"}, {"measurement": "TGI", "setting": "HCT-15 colon", "value": 12.3, "unit": "µM"}, {"measurement": "TGI", "setting": "MCF7 breast", "value": 15.1, "unit": "µM"}, {"measurement": "TGI", "setting": "SR leukemia", "value": 7.33, "unit": "µM"}, {"measurement": "TGI", "setting": "KM12 colon", "value": 15, "unit": "µM"}, {"measurement": "TGI", "setting": "MDA-MB-231 breast", "value": 8.53, "unit": "µM"}, {"measurement": "TGI", "setting": "NCI-H460 lung", "value": 10.9, "unit": "µM"}, {"measurement": "TGI", "setting": "SK-MEL-2 melanoma", "value": 5.49, "unit": "µM"}, {"measurement": "TGI", "setting": "OVCAR-3 ovarian", "value": 7.71, "unit": "µM"}, {"measurement": "TGI", "setting": "SK-MEL-5 melanoma", "value": 3.26, "unit": "µM"}, {"measurement": "TGI", "setting": "NCI/ADR-RES ovarian", "value": 18, "unit": "µM"}, {"measurement": "TGI", "setting": "NCI-H23 lung", "value": 5.32, "unit": "µM"}, {"measurement": "TGI", "setting": "HT29 colon", "value": 15.9, "unit": "µM"}, {"measurement": "TGI", "setting": "OVCAR-4 ovarian", "value": 5.95, "unit": "µM"}, {"measurement": "TGI", "setting": "RXF 393 renal", "value": 3.44, "unit": "µM"}, {"measurement": "TGI", "setting": "SN12C renal", "value": 15.8, "unit": "µM"}, {"measurement": "TGI", "setting": "PC-3 prostate", "value": 6.51, "unit": "µM"}, {"measurement": "TGI", "setting": "U251 CNS", "value": 10, "unit": "µM"}, {"measurement": "TGI", "setting": "SF-295 CNS", "value": 13.4, "unit": "µM"}, {"measurement": "TGI", "setting": "SF-539 CNS", "value": 8.66, "unit": "µM"}, {"measurement": "TGI", "setting": "HS 578T breast", "value": "> 100", "unit": "µM"}, {"measurement": "TGI", "setting": "TK-10 renal", "value": 7.3, "unit": "µM"}, {"measurement": "TGI", "setting": "LOX IMVI melanoma", "value": 17.2, "unit": "µM"}, {"measurement": "TGI", "setting": "IGROV1 ovarian", "value": 29.3, "unit": "µM"}, {"measurement": "TGI", "setting": "SNB-75 CNS", "value": 6.02, "unit": "µM"}]}]}
